The values below come from publication PMC5793121 (Toxins, 2018).

Data set [1] has as its system peritoneal macrophages of male ICR mice. The class given is in vivo, mouse. The settings on record: 7-day im 0.15 and 0.5 mg/kg. The procedure: (§1) For carrying out these experiments 90 male ICR mice were used, they were divided equally into three groups (30 animals per group) for each study and in these groups they were subdivided into subgroups of 10 mice each and treated as follows: mice of the first subgroup were injected with normal saline im, the second subgroup animals were treated with Az (0.15 mg/kg im) and the animals of the third subgroup were treated with Az (0.50 mg/kg im). The drugs were injected into the quadriceps muscle of the thigh (musculus quadriceps femoris) daily for seven days (1 mL/kg).
On the next day after the seven-day course of the Az administration, the mice of the third group (30 animals) were injected intraperitoneally with 2 mL of ink particles suspension. After 10 min the mice were euthanized (CO2 inhalation) with a subsequent isolation of the peritoneal exudate from their abdominal cavity. In the exudate (1 μL) the total number of peritoneal macrophages and the number of the ink particle-containing (phagocytic) cells among them were counted using a Gorjaev’s chamber.

The target of data set [2] is T1, human neuronal homopentameric α7 nAChR (Homo sapiens, UniProt P36544).
T1 construct: expressed in transfected cells; host or cells: mouse neuroblastoma Neuro2a, transient transfection (α7 nAChR-pCEP4) with human Ric-3 (Ric3-pCMV6-XL5, OriGene)
T1 sequence (P36544 23-502): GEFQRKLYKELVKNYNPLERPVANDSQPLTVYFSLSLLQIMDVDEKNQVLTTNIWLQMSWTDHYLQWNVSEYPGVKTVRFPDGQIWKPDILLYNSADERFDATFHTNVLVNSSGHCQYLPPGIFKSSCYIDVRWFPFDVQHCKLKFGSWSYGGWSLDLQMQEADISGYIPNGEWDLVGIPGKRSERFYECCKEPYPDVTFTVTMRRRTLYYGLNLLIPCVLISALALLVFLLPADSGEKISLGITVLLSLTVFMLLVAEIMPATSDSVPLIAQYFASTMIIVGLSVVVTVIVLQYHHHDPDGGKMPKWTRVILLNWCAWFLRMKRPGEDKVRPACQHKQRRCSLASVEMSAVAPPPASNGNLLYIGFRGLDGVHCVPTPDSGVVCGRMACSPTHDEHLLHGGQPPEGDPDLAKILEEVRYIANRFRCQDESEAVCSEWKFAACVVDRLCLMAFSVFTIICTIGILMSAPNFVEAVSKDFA
Kind of data set: Calcium imaging of ACh-evoked [Ca2+]i rise in Neuro2a cells expressing α7 nAChR. It is filed as cell-based. The settings on record: 10 μM ACh (EC50); transfected Neuro2a cells, PNU120596 10 μM; 15 min preincubation; mean ± SEM, 4 independent experiments; read-out: IC50, inhibition of ACh-evoked calcium response of α7 nAChR. The procedure: Mouse neuroblastoma Neuro2a cells were purchased from the Russian collection of cell cultures (Institute of Cytology, Russian Academy of Sciences, Saint Petersburg, Russia). Cells were cultured in DMEM (Paneco, Moscow, Russia) supplemented with 10% FBS. They were sub-cultured the day before transfection and were plated at a density of 10,000 cells per well in a 96-well black plate. On the next day Neuro2a cells were transiently transfected with plasmids coding mouse muscle α1β1δε nAChR (pRBG4-vector) and a fluorescent calcium sensor Case12 (pCase12-cyto vector, Evrogen, Moscow, Russia) in a molar ratio of 2:1 following a lipofectamine transfection protocol (ThermoFisher Scientific, Waltham, MA, USA). […]
(§2) The plates were transferred to the multimodal microplate reader Hidex Sence (Hidex, Turku, Finland) where the cells were excited by light of 485 nm wavelength and emitted fluorescence was detected at 535 ± 10 nm. Fluorescence was recorded every 2 s for three minutes following agonist addition. Responses were measured as peak intensity minus basal fluorescence level and were expressed as a percentage of the maximal response obtained to agonist. Data files were analyzed using Hidex Sence software (Hidex, Turku, Finland) and OriginPro 7.5 software (OriginLab, Northampton, MA, USA, for statistical analysis).

The test system of data set [3] is male ICR mice. It is filed as in vivo, mouse. The settings on record: 7-day im 0.15 and 0.5 mg/kg. How it is done: as §1
On the last 7th day of the Az administration, the mice of the second group (30 animals) were immunized intraperitoneally with a 1:1 mixture of 200 μL of bovine serum albumin (BSA, 0.5 mg/mL) with a complete Freund’s adjuvant. 10 days after the 1st immunization, the mice received the second 200 μL ip injection of the antigen (BSA, 0.5 mg/mL) in an incomplete Freund’s adjuvant (1:1 ratio).

In the next data set the test system is 5-HT3 receptors. The settings on record: concentration up to 10 μM; cited from earlier work.
The test system of data set [4] is human muscle-type nAChR fetal form α1β1γδ. Particulars: Xenopus oocytes; cited from earlier work.
The target in data set [5] is T2, mouse muscle type α1β1εδ nAChR (Mus musculus, UniProt P02716+P04756+P20782).
T2 construct: expressed in transfected cells; host or cells: mouse neuroblastoma Neuro2a, transient transfection (pRBG4 plasmids), co-expressed with Case12 calcium sensor
T2 sequence (P09690 24-501): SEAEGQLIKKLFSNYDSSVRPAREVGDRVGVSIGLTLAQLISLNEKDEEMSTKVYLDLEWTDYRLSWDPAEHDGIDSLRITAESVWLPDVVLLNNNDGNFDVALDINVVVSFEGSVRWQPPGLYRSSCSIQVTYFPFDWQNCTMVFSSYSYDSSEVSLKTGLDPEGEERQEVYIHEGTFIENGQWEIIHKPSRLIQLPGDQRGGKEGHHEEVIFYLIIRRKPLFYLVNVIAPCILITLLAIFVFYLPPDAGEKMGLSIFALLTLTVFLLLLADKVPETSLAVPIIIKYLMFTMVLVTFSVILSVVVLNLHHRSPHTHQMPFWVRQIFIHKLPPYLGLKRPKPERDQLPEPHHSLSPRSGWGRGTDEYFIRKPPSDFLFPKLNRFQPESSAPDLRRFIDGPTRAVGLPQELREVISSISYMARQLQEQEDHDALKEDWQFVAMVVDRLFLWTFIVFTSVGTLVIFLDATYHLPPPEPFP
T2 sequence (P04756 21-457): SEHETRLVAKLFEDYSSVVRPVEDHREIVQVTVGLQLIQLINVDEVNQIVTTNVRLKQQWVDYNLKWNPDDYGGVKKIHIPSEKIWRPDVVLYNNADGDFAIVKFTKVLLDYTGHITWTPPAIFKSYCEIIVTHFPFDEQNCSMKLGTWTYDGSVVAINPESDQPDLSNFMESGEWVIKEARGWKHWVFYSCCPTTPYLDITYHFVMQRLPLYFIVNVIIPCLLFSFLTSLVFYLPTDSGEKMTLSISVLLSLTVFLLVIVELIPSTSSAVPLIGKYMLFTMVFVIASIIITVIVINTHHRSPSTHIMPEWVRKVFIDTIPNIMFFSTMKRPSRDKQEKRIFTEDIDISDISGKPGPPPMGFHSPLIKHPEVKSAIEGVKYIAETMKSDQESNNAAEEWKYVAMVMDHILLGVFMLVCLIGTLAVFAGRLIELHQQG
T2 sequence (P02716 25-520): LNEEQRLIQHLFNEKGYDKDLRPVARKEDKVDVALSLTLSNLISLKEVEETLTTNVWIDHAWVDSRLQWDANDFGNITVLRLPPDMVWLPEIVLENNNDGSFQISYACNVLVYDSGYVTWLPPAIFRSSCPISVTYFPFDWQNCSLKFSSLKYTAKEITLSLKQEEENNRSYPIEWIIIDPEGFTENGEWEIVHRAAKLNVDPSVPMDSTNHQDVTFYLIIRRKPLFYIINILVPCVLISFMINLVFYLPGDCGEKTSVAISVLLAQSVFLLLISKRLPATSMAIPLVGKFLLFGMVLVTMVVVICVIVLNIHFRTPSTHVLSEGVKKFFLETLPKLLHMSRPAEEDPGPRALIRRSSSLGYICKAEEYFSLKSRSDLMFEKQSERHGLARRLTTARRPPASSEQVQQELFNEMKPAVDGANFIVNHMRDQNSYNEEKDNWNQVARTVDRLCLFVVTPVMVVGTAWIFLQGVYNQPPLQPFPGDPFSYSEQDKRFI
T2 sequence (P20782 21-493): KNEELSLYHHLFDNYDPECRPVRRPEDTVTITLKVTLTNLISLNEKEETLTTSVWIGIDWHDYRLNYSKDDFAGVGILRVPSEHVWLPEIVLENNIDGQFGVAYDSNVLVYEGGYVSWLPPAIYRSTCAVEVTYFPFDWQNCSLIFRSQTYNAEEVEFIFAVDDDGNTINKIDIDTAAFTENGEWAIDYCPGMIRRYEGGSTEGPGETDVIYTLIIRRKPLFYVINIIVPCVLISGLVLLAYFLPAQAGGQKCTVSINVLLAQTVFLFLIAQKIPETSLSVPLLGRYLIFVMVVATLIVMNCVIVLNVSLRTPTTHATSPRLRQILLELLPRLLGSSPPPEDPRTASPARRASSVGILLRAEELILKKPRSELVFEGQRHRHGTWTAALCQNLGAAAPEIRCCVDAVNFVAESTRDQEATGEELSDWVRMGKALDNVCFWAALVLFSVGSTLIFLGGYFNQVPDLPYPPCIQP
Kind of data set: Calcium imaging of ACh-evoked [Ca2+]i rise in Neuro2a cells expressing muscle nAChR (Case12 sensor). It is filed as cell-based. The procedure: Mouse neuroblastoma Neuro2a cells were purchased from the Russian collection of cell cultures (Institute of Cytology, Russian Academy of Sciences, Saint Petersburg, Russia). Cells were cultured in DMEM (Paneco, Moscow, Russia) supplemented with 10% FBS. They were sub-cultured the day before transfection and were plated at a density of 10,000 cells per well in a 96-well black plate. On the next day Neuro2a cells were transiently transfected with plasmids coding mouse muscle α1β1δε nAChR (pRBG4-vector) and a fluorescent calcium sensor Case12 (pCase12-cyto vector, Evrogen, Moscow, Russia) in a molar ratio of 2:1 following a lipofectamine transfection protocol (ThermoFisher Scientific, Waltham, MA, USA). Human α7 nAChR (α7 nAChR-pCEP4) was expressed accordingly with a co-expression of the human chaperone Ric-3 (Ric3-pCMV6-XL5, OriGene, Rockville, MD, USA) in a molar ratio 4:1. The transfected cells were grown at 37 °C in a CO2 incubator for 48–72 h, before performing the calcium imaging assay.
Calcium imaging procedure was performed as published earlier. Briefly, after removing the growth medium, the transfected Neuro2a cells and cultivated SH-SY5Y cells were washed with a buffer containing 140 mM NaCl, 2 mM CaCl2, 2.8 mM KCl, 4 mM MgCl2, 20 mM HEPES, 10 mM glucose; pH 7.4. Neuro2a cells expressing muscle nAChR and the protein calcium sensor Case12 were proceeded directly, while SH-SY5Y cells expressing human α3-containing nAChRs natively were loaded with a fluorescent dye Fluo-4, AM (1.824 μM, ThermoFisher Scientific, Waltham, MA, USA) and a water-soluble probenecid (1.25 mM, ThermoFisher Scientific, Waltham, MA, USA) for 30 min at 37 °C and then were kept for 30 min at room temperature according to the manufacturer’s protocol.
To detect the human α7 nAChR-mediated calcium response, transfected Neuro2a cells were incubated with its positive allosteric modulator PNU120596 (10 μM, Tocris Bioscience, Bristol, UK) for 20 min at room temperature before acetylcholine (Sigma-Aldrich Chemie Gmbh, Munich, Germany) addition. To assess mouse muscle or human α3-containing nAChRs this step was skipped. […]
as §2

A further data set has as its system mice. Particulars: intraperitoneal administration to mice; cited from earlier work.
Data set [6] relates to male ICR mice. The class given is in vivo, mouse. Particulars: 7-day im 0.15 and 0.5 mg/kg. How it is done:
as §1
On the last 7th day of the Az administration, the mice of the first group (30 animals) were immunized with a solution of trinitrobenzenesulfonic acid (TNBS) (200 μL, 10 mM) subcutaneously at the base of a tail. After 6 days the animals were secondarily immunized with TNBS (50 μL, 10 mM) injected in the pad of the left hind paw, the same volume of normal saline was injected into the right hind paw. 24 h after the second immunization, the animals were euthanized (CO2 inhalation) and the weights of their experimental and control paws were determined. The reaction index was calculated using the indicated formula: Ri=Wexp−Wcont/Wexp×100% Ri—reaction index, Wexp—weight of the experimental paw, Wcont—weight of the control paw.
This is another data set of the same source.

Data set [7] deals with human muscle-type nAChR adult form α1β1εδ. Particulars: Xenopus oocytes; cited from earlier work.

“And” between values parts separate entries of the source, which are not always exact repeats. Identical values can stand only once. No end group written: not given here.

What is called IC50 is the point on the concentration scale where inhibition reaches its midpoint. As a reminder, the LD50 is the dose at which mortality reaches 50%. On to “DNWWPKPPHQGPRPPRPRPKP-NH2 [Az, azemiopsin]”, for which the “phagocytic activity (engulfing ink particles) of peritoneal macrophages” value in [1] was “did not significantly change”. The IC50 in data set [2] was 2670 nM and ~3000 nM; in [4], 1560 ± 370 nM; in data set [5] (30 μM ACh (EC100), transfected Neuro2a cells, Case12 sensor, 15 min preincubation, mean ± SEM, 4 independent experiments, read-out: IC50, inhibition of ACh-evoked calcium response of muscle nAChR), 19 ± 8 nM; in data set [7], 440 ± 100 nM. In the data set on male ICR mice [3], the “immune response to BSA (IgG titers in blood serum)” value is given as “did not demonstrate any significant difference”. Further, the “activity against 5-HT3 receptors” value in the data set with 5-HT3 receptors is reported as “no activity”. Further, the “selectivity to muscle receptor versus α7 nAChR” value in data set [5] (ratio of calcium imaging IC50 values α7 / muscle) is given as “about 140 times”. Further, the 50% lethal dose (LD50) with mice was 2.57 ± 0.27 mg/kg. Also, the “degree of paw edema in delayed-type hypersensitivity to TNBS (cellular immunity)” value in the data set on male ICR mice [6] is reported as “did not cause any significant changes”.
